Test results as given in patent publication US11744814B2, “Methods and pharmaceutical preparations for elevating blood hemoglobin and oxygen saturation levels with hydroxycitric acid” (GLYKON TECHNOLOGIES GROUP, LLC, priority 2020, dated 2023).

What was measured:
[1] = system: intestinal alpha-glucosidase; settings: background statement, in vitro; cited from earlier work
[2] = biological target: T1, pancreatic alpha-amylase (Homo sapiens, UniProt P04746); settings: background statement, in vitro; cited from earlier work
T1 sequence (P04746 16-511): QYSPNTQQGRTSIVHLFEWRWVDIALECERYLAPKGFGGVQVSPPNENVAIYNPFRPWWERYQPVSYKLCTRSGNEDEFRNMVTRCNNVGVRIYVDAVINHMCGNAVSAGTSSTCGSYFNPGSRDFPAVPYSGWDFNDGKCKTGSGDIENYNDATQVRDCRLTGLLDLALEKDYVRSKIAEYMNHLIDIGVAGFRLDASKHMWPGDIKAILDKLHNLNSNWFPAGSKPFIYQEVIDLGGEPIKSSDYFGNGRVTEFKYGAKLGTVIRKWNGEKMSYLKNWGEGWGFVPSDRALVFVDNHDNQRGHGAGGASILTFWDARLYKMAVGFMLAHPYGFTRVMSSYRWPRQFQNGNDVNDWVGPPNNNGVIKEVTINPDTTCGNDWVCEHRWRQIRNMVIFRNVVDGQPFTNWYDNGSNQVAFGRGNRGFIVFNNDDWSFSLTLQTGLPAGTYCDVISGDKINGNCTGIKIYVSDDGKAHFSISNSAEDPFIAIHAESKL

[3] = Blood levels of biomolecules before and 90 minutes after the Example 1 formulation; assay type: in vivo, human; settings: conclusion over the examples, HCA administration
Procedure: Subject 5 was a person, weighing approximately 285 pounds and with a normal fasting blood sugar level of 115-120. First, blood was drawn from Subject 5 and levels of various biomolecules were measured. Next, Subject 5 was administered 16.66 ml of the Example 1 formulation on an empty stomach, i.e. wherein with each 16.66 ml the subject received 5,000 mg of the potassium-magnesium (−)-hydroxycitric acid salt, corresponding to 3490 mg of (−)-hydroxycitric acid. 90 minutes after the administration, blood was drawn from Subject 5 and levels of the various biomolecules were remeasured.
Subject 6 was administered 16.66 ml of the Example 1 formulation on an empty stomach, i.e. wherein with each 16.66 ml the subject received 5,000 mg of the potassium-magnesium (−)-hydroxycitric acid salt, corresponding to 3490 mg of (−)-hydroxycitric acid. 90 minutes after the administration, blood was drawn from Subject 6 and levels of the various biomolecules were remeasured.

[4] = biological target: T2, ATP citrate lyase (Homo sapiens, UniProt P53396); settings: background statement; cited from earlier work
T2 sequence (P53396 1-1101): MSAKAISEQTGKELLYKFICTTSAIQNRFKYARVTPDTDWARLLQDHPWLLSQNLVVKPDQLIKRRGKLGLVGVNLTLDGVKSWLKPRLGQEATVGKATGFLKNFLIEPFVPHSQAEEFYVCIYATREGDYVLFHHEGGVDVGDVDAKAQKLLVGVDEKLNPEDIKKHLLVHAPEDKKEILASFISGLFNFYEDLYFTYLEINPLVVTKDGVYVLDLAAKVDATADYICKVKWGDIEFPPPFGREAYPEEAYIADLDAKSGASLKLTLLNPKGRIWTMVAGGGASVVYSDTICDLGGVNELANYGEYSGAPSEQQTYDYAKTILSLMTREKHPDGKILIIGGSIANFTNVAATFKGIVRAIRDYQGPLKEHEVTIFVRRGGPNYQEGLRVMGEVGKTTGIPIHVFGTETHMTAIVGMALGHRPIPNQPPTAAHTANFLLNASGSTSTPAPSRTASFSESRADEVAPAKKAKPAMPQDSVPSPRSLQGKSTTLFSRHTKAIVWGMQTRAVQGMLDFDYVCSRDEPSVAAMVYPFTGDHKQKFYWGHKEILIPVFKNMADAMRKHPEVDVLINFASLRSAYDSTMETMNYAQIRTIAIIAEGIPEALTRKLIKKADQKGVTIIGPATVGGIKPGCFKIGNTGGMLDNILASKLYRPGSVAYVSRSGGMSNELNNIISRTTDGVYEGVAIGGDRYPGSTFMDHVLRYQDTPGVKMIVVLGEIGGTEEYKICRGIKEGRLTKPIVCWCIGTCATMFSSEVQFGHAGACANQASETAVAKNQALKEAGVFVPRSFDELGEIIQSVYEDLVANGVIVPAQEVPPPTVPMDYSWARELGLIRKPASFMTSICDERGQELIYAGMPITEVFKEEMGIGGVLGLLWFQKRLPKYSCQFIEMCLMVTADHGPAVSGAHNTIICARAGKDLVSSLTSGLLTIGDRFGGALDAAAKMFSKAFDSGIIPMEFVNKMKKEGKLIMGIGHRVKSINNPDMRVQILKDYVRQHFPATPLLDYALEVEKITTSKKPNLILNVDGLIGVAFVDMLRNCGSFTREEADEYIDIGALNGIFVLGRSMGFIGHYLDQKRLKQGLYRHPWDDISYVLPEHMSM

[5] = fNIRS measurement of blood hemoglobin and oxygen saturation after the Example 1 formulation; assay type: in vivo, human; settings: conclusion over the examples, HCA administration
Procedure: Subjects 1-4 were orally administered the formulation of Example 1. The Subjects were given either one or two administrations of 8.33 ml of the aqueous formulation of Example 1 on an empty stomach, i.e. wherein with each 8.33 ml the subject received 2,500 mg of the potassium-magnesium (−)-hydroxycitric acid salt, corresponding to 1745 mg of (−)-hydroxycitric acid.
fNIRS testing (functional Near Infrared Spectroscopy) was used to measure blood hemoglobin and oxygen saturation. fNIRS can be used to determine real-time peripheral and cerebral hemodynamic responses. For example, relative changes in HbR (deoxygen saturation), HbO (oxygen saturation), and HbT (total hemoglobin concentration), etc. can be determined via application of Modified Beer Lambert Law. HbR, Hb=deoxygen saturation (shown as the thinnest and bottom dashed line in FIG. 1) HbO, HbO2=oxygen saturation (shown as the medium-thickness and middle line in FIG. 1) HbT=total hemoglobin concentration (shown as the darkest, thickest and top line in FIG. 1). On the graphs, time is in seconds.

Question: Which results are given for `O=C(O)C[C@](O)(C(=O)O)[C@H](O)C(=O)O` [(2S,3R)-HCA]?
Answer: inhibition of intestinal alpha-glucosidase [1]: inhibits; inhibition of pancreatic alpha-amylase [2]: inhibits

Question: What does the source list for `O=C(O)CC(O)(C(=O)O)C(O)C(=O)O` (stereo not drawn) [HCA, 1,2-dihydroxypropane-1,2,3-tricarboxylic acid]?
Answer: cortisol [3]: decreased; levels of ketones [3]: relatively stable or slightly lower; triglycerides [3]: decreased; glucose ([3]; in some cases transient): increased; inhibition of ATP citrate lyase [4]: competitive inhibitor; blood hemoglobin [5]: increased; oxygen saturation [5]: increased
